Measurements as given in PMC6399515 (Insect Biochemistry and Molecular Biology, 2016).

Tests used:
CYP6P2 = target: T1, CYP6P2 (Anopheles gambiae, UniProt Q8T629, V81I)
T1 sequence (Q8T629 1-507 V81I): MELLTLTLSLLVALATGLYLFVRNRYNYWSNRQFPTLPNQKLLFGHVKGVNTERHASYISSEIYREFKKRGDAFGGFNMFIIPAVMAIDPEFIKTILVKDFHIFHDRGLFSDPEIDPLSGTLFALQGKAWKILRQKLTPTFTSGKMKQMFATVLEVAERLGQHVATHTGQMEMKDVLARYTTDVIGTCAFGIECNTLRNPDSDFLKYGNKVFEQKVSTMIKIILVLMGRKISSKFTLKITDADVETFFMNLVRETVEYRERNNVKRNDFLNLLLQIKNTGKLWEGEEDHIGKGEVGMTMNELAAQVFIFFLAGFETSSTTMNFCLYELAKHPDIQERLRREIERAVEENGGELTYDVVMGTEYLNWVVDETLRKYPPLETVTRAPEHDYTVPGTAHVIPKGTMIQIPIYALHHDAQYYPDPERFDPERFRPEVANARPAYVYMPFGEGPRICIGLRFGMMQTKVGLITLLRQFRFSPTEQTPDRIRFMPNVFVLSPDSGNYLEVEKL
T1 sequence (Q7QFI3 1-587 partner): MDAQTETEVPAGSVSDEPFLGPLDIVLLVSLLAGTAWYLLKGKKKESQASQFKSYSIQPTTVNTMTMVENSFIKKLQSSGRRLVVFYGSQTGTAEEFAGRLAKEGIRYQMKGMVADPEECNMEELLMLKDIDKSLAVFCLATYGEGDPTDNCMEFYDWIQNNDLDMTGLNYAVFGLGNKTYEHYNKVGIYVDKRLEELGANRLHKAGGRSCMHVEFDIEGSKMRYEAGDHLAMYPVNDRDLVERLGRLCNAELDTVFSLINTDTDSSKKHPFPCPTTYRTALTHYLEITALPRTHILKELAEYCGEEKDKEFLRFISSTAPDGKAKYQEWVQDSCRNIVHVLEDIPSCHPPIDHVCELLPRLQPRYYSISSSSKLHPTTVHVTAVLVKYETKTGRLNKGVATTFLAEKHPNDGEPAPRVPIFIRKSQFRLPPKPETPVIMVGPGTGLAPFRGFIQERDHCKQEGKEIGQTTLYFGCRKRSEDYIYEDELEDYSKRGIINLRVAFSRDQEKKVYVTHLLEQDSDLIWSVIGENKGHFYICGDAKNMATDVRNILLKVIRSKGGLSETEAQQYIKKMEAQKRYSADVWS
T1 sequence (Q86QH4 1-128 partner): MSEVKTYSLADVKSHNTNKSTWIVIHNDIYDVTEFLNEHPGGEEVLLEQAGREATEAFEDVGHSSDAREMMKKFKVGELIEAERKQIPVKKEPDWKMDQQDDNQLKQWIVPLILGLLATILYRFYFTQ

CYP6P4 = target: T2, CYP6P4 (Anopheles gambiae, UniProt Q7QCY8)
T2 sequence (Q7QCY8 1-506): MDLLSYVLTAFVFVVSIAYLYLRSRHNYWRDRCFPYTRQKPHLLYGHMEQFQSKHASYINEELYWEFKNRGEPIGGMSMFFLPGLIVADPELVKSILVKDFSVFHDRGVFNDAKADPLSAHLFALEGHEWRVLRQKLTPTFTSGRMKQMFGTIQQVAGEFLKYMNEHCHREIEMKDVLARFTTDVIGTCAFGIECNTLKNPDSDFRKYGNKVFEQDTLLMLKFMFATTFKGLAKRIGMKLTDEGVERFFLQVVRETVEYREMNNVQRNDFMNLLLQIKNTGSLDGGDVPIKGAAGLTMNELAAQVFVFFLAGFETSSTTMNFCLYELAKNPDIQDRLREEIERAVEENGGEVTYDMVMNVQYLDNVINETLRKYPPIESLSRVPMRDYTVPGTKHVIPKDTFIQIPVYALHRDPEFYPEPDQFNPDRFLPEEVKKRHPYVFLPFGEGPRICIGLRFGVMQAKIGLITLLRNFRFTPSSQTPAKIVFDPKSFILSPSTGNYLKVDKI
T2 sequence (Q86QH5 1-679 partner): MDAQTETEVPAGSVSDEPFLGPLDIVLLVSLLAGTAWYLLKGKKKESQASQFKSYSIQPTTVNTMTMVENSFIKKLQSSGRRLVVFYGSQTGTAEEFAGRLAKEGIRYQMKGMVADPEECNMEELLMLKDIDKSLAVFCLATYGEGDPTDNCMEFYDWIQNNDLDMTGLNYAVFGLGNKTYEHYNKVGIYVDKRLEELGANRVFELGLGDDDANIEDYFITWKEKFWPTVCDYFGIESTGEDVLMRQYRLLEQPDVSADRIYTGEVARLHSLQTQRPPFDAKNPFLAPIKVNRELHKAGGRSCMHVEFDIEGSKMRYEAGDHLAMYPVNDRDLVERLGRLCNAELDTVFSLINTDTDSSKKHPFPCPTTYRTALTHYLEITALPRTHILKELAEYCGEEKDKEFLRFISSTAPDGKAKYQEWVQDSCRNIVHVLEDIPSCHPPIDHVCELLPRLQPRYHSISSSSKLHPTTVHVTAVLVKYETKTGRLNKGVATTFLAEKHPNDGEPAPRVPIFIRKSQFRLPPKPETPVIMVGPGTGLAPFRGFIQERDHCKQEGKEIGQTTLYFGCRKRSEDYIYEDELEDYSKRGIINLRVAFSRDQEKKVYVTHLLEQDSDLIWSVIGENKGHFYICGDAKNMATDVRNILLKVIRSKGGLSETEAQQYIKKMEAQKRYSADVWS
T2 sequence (Q86QH4 1-128 partner): T1 sequence (Q86QH4 1-128 partner)

CYP6M2 = CYP6M2 (Anopheles gambiae, UniProt Q7Q449)
CYP9J5 = target: T3, CYP9J5 (Anopheles gambiae, UniProt Q5TN57)
T3 sequence (Q5TN57 1-545): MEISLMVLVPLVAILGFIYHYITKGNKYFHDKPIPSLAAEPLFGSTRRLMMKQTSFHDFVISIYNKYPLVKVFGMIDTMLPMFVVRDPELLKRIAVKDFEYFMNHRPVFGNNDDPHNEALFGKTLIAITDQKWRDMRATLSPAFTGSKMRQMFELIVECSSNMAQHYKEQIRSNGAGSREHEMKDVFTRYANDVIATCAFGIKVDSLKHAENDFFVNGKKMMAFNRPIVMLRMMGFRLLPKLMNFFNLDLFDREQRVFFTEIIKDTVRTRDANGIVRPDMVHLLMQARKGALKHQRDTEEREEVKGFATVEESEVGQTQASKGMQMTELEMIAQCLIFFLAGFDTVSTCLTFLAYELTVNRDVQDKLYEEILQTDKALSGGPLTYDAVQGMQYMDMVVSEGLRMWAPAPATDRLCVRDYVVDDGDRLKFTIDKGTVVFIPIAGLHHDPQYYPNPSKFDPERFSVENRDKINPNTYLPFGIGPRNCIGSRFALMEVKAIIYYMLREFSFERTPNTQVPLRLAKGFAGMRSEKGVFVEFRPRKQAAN
T3 sequence (Q86QH5 1-679 partner): T2 sequence (Q86QH5 1-679 partner)
T3 sequence (Q86QH4 1-128 partner): T1 sequence (Q86QH4 1-128 partner)

Sequence of CYP6M2 (Q7Q449 1-499, one chain of several): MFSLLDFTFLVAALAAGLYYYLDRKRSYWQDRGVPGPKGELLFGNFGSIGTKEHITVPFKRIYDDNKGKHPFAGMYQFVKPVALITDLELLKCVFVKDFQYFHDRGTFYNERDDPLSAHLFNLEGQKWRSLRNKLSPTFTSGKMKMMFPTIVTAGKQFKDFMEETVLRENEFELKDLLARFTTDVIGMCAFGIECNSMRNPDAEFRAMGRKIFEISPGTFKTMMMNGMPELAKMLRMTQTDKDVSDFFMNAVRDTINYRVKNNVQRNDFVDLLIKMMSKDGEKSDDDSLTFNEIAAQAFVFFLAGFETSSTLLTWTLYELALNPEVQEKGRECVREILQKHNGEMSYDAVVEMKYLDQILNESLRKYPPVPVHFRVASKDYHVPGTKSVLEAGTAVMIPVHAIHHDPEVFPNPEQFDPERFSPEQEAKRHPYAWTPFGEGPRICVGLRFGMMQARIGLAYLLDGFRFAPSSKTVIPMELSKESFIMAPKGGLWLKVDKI

| Structure (SMILES) | % PPF depletion + PBO (CYP6P2; Anopheles gambiae, pH 7.4) | % PPF depletion −PBO (CYP6P2; Anopheles gambiae, pH 7.4) | % PPF depletion + PBO (CYP6P5; Anopheles gambiae, pH 7.4) | % PPF depletion −PBO (CYP6P5; Anopheles gambiae, pH 7.4) | % PPF depletion + PBO (CYP6P4; Anopheles gambiae, pH 7.4) | % PPF depletion −PBO (CYP6P4; Anopheles gambiae, pH 7.4) | % PPF depletion + PBO (CYP6M2; Anopheles gambiae, pH 7.4) | % PPF depletion −PBO (CYP6M2; Anopheles gambiae, pH 7.4) | % PPF depletion + PBO (CYP9J5; Anopheles gambiae, pH 7.4) | Inhibition ratio (%): reduction of PPF depletion caused by PBO (CYP6P2) | Inhibition ratio (%): reduction of PPF depletion caused by PBO (CYP6P5) | Inhibition ratio (%): reduction of PPF depletion caused by PBO (CYP6P4) | Inhibition ratio (%): reduction of PPF depletion caused by PBO (CYP6M2) | Inhibition ratio (%): reduction of PPF depletion caused by PBO (CYP9J5) |
| --- | --- | --- | --- | --- | --- | --- | --- | --- | --- | --- | --- | --- | --- | --- |
| CC(COc1ccc(Oc2ccccc2)cc1)Oc1ccccn1 (centres unmarked) [PPF, pyriproxyfen] | 6.45 ± 3.22% | 58.03 ± 1.35% | 2.40 ± 2.01% | 39.96 ± 1.04% | 4.44 ± 1.99% | 81.63 ± 0.63% | 1.44 ± 0.67% | 30.93 ± 4.65% | 0.08 ± 0.15% | – | – | – | – | – |
| CCCCOCCOCCOCc1cc2c(cc1CCC)OCO2 [PBO, piperonyl butoxide] | – | – | – | – | – | – | – | – | – | 91.0% | 95.4% | 94.6% | 95.3% | 99.6% |
